The source made the active and inactive calls. The calls are words filed in the database; no cut-off is given here.
Assays:
[1] = molecular target: T1, CDK8/Cyclin C (Homo sapiens) (UniProt P49336+P24863); assay: Hydrophobic-tagging degradation activity at CDK8/Cyclin C in human MDA-MB-231 cells assessed as protein degradation at 1.5 to 30 uM incubated for 48 hrs by Western blotting analysis; format: cell-based; conditions: dose 1.5-30 µM
[2] = molecular target: T1, CDK8/Cyclin C (Homo sapiens); assay: Hydrophobic-tagging degradation activity at CDK8/Cyclin C in human MDA-MB-468 cells assessed as downregulation of MYC gene expression level at 4 uM incubated for 24 hrs by qPT-PCR analysis; format: cell-based
[3] = molecular target: T1, CDK8/Cyclin C (Homo sapiens); assay: Hydrophobic-tagging degradation activity at CDK8/Cyclin C in human MDA-MB-468 cells assessed as protein degradation at 3 uM incubated for 24 hrs in presence of 17-AAG by Western blotting analysis; format: cell-based
[4] = tested on: HCT-116; assay: Antiproliferative activity against human HCT-116 cells assessed as inhibition of cell proliferation incubated for 4 days by Celltiter glo luminescent assay; format: functional, cell-based; conditions: HCT-116, 96 h
[5] = molecular target: Cyclin-dependent kinase 2 (Homo sapiens) (UniProt P24941); assay: PROTAC activity at CDK2 in human MDA-MB-468 cells assessed as degradation of CDK2 at 0.625 to 10 uM incubated for 24 hrs by Western blotting analysis; format: cell-based; conditions: dose 0.625-10 µM
[6] = molecular target: T1, CDK8/Cyclin C (Homo sapiens); assay: Hydrophobic-tagging degradation activity at CDK8/Cyclin C in human MDA-MB-468 cells assessed as protein degradation at 10 uM incubated for 2 to 20 hrs in presence of cycloheximide by Western blotting analysis; format: cell-based; conditions: time 2-20 hrs, TDE = time-dependent effect
[7] = molecular target: T1, CDK8/Cyclin C (Homo sapiens); assay: Hydrophobic-tagging degradation activity at CDK8/Cyclin C in human MDA-MB-468 cells assessed as protein degradation at 1.1 to 10 uM incubated for 48 hrs by Western blotting analysis; format: cell-based; conditions: dose 1.1-10 µM
[8] = tested on: MDA-MB-468; assay: Inhibition of colony formation in human MDA-MB-468 cells assessed as reduction in cell colony size at 1.25 to 20 uM incubated for 3 days by crystal violet staining based assay; format: functional; conditions: dose 1.25-20 µM, time 3.0 day
[9] = molecular target: Cyclin-dependent kinase 8 (Homo sapiens, UniProt P49336); assay: Hydrophobic-tagging degradation activity at CDK8 in human MDA-MB-468 cells assessed as downregulation of RAP2C protein expression at 5 uM incubated for 12 hrs by DIA-based proteomic analysis; format: cell-based
Cyclin-dependent kinase 8, sequence (P49336 whole entry): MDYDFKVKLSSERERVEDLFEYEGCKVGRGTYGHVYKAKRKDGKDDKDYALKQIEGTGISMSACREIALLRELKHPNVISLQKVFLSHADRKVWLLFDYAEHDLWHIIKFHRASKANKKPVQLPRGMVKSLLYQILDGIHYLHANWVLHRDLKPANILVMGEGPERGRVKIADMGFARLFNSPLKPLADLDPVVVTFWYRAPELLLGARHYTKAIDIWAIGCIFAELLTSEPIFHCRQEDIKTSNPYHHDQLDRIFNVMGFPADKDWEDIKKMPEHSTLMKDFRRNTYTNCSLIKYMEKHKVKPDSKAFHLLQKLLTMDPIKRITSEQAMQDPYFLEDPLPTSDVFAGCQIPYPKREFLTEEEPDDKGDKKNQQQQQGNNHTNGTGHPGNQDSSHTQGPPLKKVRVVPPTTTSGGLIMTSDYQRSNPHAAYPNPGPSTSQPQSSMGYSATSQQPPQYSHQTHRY

[10] = molecular target: T1, CDK8/Cyclin C (Homo sapiens); assay: Hydrophobic-tagging degradation activity at CDK8/Cyclin C in human MDA-MB-468 cells assessed as downregulation of STAT1 phosphorylation at Ser727 residue at 4 uM incubated for 24 hrs followed by compound washout and measured after 24 hrs by Western blotting analysis; format: cell-based
[11] = molecular target: Cyclin-dependent kinase 1 (Homo sapiens) (UniProt P06493); assay: Hydrophobic-tagging degradation activity at CDK1 in human MDA-MB-468 cells assessed as degradation of CDK1 at 10 uM incubated for 24 hrs by Western blotting analysis; format: cell-based
Cyclin-dependent kinase 1 (Homo sapiens), sequence (P06493 whole entry, looked up): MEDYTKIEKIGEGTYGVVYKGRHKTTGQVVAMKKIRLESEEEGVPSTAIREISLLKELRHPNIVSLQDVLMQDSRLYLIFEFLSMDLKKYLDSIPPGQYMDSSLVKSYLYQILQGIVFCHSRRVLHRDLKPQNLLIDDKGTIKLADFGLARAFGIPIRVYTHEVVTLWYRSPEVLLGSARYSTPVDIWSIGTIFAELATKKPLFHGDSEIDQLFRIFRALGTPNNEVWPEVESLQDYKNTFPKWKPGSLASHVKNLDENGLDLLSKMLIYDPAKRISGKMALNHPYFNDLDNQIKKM

[12] = molecular target: Cyclin-dependent kinase 1 (Homo sapiens) (UniProt P06493); assay: Hydrophobic-tagging degradation activity at CDK1 in human MDA-MB-468 cells assessed as downregulation of CDK1 mRNA level at 1.1 to 10 uM incubated for 24 hrs by RT-qPCR analysis; format: cell-based; conditions: dose 1.1-10 µM
[13] = molecular target: G1/S-specific cyclin-E1 (Homo sapiens) (UniProt P24864); assay: PROTAC activity at Cyclin E1 in human MDA-MB-468 cells assessed as degradation of Cyclin E1 at 0.625 to 10 uM incubated for 24 hrs by Western blotting analysis; format: cell-based; conditions: dose 0.625-10 µM
G1/S-specific cyclin-E1 (Homo sapiens), sequence (P24864 whole entry): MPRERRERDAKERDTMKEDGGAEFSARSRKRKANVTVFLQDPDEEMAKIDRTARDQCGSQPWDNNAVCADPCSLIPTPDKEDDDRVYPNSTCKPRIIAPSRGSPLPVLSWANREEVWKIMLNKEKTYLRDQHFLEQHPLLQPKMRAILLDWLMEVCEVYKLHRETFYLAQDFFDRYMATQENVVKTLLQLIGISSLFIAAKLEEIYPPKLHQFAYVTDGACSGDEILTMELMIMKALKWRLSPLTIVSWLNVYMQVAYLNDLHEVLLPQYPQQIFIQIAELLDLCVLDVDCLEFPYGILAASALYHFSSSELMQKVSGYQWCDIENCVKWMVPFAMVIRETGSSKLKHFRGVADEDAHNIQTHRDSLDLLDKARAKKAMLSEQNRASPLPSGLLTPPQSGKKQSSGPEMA

[14] = tested on: MDA-MB-468; assay: Antiproliferative activity against human MDA-MB-468 cells assessed as reduction in cell growth at 5 to 20 uM measured upto 5 days by Celltiter glo luminescent assay; format: functional, cell-based; conditions: dose 5-20 µM, time <= 5.0 day
[15] = molecular target: T1, CDK8/Cyclin C (Homo sapiens); assay: Hydrophobic-tagging degradation activity at CDK8/Cyclin C in human MDA-MB-468 cells assessed as effect on mRNA expression level at 1.1 to 10 uM by […] analysis; format: cell-based; conditions: dose 1.1-10 µM
[16] = molecular target: Cyclin-dependent kinase 12 (Homo sapiens) (UniProt Q9NYV4); assay: PROTAC activity at CDK12 in human MDA-MB-468 cells assessed as degradation of CDK12 at 0.625 to 10 uM incubated for 24 hrs by Western blotting analysis; format: cell-based; conditions: dose 0.625-10 µM
Cyclin-dependent kinase 12 (Homo sapiens), sequence (Q9NYV4 whole entry, looked up): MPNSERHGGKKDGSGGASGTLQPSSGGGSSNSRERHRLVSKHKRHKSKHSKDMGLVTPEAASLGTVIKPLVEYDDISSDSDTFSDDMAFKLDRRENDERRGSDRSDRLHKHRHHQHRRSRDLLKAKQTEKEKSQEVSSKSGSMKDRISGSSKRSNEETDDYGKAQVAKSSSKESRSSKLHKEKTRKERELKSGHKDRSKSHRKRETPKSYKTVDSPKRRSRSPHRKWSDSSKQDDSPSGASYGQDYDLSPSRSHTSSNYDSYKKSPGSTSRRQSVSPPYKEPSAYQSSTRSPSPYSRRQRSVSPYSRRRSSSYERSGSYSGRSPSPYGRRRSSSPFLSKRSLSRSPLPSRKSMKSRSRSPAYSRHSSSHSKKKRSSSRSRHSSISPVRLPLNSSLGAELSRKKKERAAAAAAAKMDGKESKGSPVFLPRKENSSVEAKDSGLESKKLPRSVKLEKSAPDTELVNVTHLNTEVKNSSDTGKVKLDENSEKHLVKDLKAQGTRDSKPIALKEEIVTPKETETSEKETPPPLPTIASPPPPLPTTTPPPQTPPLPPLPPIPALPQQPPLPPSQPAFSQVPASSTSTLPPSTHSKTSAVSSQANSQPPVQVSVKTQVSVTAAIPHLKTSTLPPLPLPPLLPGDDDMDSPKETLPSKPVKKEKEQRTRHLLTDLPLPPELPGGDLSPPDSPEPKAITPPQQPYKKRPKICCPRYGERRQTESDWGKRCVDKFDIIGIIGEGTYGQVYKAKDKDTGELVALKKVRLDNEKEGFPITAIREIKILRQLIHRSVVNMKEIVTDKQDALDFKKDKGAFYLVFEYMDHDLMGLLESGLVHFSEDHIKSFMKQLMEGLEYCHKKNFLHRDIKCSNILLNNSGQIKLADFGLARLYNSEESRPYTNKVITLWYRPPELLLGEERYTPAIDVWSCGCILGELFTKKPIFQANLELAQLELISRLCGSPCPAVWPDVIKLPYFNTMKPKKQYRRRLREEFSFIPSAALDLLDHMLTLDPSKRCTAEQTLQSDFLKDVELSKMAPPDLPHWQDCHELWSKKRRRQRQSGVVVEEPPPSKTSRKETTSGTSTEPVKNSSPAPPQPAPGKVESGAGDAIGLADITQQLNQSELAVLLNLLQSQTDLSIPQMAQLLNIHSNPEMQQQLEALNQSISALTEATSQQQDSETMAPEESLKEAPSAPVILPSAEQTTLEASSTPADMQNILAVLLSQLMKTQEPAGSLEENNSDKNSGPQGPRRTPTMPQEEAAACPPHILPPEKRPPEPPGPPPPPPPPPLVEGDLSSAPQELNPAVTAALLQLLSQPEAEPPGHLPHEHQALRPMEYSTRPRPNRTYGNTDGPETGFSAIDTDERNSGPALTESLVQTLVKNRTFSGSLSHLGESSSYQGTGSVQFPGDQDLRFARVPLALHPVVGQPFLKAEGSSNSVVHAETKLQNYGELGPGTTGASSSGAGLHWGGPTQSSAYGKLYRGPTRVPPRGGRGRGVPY

[17] = tested on: MDA-MB-468; assay: Antiproliferative activity against human MDA-MB-468 cells assessed as reduction in cell viability incubated for 4 days by Celltiter glo luminescent assay; format: functional, cell-based; conditions: time 4.0 day
[18] = molecular target: T1, CDK8/Cyclin C (Homo sapiens); assay: Hydrophobic-tagging degradation activity at CDK8/Cyclin C in human MDA-MB-468 cells assessed as downregulation of C-terminal RNA polymerase II phosphorylation at serine 2 at 2 to 8 uM incubated for 24 hrs by Western blotting analysis; format: cell-based; conditions: dose 2-8 µM
[19] = molecular target: Cyclin-A2 (Homo sapiens) (UniProt P20248); assay: PROTAC activity at Cyclin A2 in human MDA-MB-468 cells assessed as degradation of Cyclin A2 at 0.625 to 10 uM incubated for 24 hrs by Western blotting analysis; format: cell-based; conditions: dose 0.625-10 µM
Cyclin-A2 (Homo sapiens), sequence (P20248 whole entry): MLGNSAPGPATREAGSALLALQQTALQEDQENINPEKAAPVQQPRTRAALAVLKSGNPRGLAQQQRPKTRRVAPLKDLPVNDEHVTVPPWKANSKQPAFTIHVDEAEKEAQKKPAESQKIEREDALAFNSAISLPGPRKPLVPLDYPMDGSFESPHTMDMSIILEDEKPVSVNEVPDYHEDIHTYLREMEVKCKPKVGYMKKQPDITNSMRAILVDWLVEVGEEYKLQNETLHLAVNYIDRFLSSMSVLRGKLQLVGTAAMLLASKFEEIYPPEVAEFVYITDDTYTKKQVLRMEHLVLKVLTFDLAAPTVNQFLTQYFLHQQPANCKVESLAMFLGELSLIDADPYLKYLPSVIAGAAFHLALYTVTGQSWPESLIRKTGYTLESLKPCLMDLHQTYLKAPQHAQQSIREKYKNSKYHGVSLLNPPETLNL

[20] = molecular target: T1, CDK8/Cyclin C (Homo sapiens); assay: Hydrophobic-tagging degradation activity at CDK8/Cyclin C in human MDA-MB-468 cells assessed as protein degradation at 0.38 to 12 uM incubated for 48 hrs by Western blotting analysis; format: cell-based; conditions: dose 0.38-12 µM
[21] = molecular target: Cyclin-dependent kinase 4 (Homo sapiens) (UniProt P11802); assay: Hydrophobic-tagging degradation activity at CDK4 in human MDA-MB-468 cells assessed as degradation of CDK4 at 0.625 to 10 uM incubated for 24 hrs by Western blotting analysis; format: cell-based; conditions: dose 0.625-10 µM
Cyclin-dependent kinase 4 (Homo sapiens), sequence (P11802 whole entry): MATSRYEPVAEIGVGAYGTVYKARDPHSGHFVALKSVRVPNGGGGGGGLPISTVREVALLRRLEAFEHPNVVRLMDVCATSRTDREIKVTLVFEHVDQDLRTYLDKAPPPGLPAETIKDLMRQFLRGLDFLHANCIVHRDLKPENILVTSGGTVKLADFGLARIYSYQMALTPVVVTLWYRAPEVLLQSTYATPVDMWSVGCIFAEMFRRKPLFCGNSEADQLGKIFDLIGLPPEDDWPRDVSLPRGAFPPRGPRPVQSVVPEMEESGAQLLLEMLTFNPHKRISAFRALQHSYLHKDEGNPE

[22] = molecular target: T1, CDK8/Cyclin C (Homo sapiens); assay: Hydrophobic-tagging degradation activity at CDK8/Cyclin C in human MDA-MB-468 cells assessed as downregulation of C-terminal RNA polymerase II phosphorylation at serine 5 at 2 to 8 uM incubated for 24 hrs by Western blotting analysis; format: cell-based; conditions: dose 2-8 µM
[23] = molecular target: Cyclin-dependent kinase 5 (Homo sapiens) (UniProt Q00535); assay: PROTAC activity at CDK5 in human MDA-MB-468 cells assessed as degradation of CDK5 at 0.625 to 10 uM incubated for 24 hrs by Western blotting analysis; format: cell-based; conditions: dose 0.625-10 µM
Cyclin-dependent kinase 5 (Homo sapiens), sequence (Q00535 whole entry, looked up): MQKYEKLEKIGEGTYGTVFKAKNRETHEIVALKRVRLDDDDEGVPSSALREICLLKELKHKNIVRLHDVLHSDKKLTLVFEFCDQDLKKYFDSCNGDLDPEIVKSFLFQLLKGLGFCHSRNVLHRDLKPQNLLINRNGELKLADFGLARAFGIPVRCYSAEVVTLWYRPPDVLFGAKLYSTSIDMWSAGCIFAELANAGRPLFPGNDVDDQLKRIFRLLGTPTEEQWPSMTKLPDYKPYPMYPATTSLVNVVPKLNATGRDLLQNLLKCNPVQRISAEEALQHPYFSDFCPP

[24] = molecular target: T1, CDK8/Cyclin C (Homo sapiens); assay: Hydrophobic-tagging degradation activity at CDK8/Cyclin C (unknown origin) assessed as protein degradation at 0.625 to 10 uM incubated for 48 hrs by Western blotting analysis; format: protein-complex assay; conditions: dose 0.625-10 µM
[25] = molecular target: T1, CDK8/Cyclin C (Homo sapiens); assay: Hydrophobic-tagging degradation activity at CDK8/Cyclin C in human MDA-MB-468 cells assessed as protein degradation at 1.1 to 10 uM incubated for 24 hrs in presence of MG132 by Western blotting analysis; format: cell-based; conditions: dose 1.1-10 µM
[26] = molecular target: G2/mitotic-specific cyclin-B1 (Homo sapiens) (UniProt P14635); assay: PROTAC activity at Cyclin B1 in human MDA-MB-468 cells assessed as degradation of Cyclin B1 at 0.625 to 10 uM incubated for 24 hrs by Western blotting analysis; format: cell-based; conditions: dose 0.625-10 µM
G2/mitotic-specific cyclin-B1 (Homo sapiens), sequence (P14635 whole entry): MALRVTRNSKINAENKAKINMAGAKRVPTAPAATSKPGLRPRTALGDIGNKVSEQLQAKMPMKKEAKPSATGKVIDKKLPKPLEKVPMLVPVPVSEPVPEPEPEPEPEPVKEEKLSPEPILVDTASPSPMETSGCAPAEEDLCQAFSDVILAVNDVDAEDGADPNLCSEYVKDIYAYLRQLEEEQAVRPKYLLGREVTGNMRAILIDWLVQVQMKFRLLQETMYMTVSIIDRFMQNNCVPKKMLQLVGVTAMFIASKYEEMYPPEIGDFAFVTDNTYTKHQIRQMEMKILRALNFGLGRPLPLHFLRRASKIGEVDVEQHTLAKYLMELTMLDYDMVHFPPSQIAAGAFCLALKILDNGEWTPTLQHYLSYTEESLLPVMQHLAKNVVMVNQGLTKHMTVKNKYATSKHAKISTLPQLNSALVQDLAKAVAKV

[27] = molecular target: Cyclin-dependent kinase 9 (Homo sapiens) (UniProt P50750); assay: Hydrophobic-tagging degradation activity at CDK9 in human MDA-MB-468 cells assessed as degradation of CDK9 at 0.625 to 10 uM incubated for 24 hrs by Western blotting analysis; format: cell-based; conditions: dose 0.625-10 µM
Cyclin-dependent kinase 9 (Homo sapiens), sequence (P50750 whole entry): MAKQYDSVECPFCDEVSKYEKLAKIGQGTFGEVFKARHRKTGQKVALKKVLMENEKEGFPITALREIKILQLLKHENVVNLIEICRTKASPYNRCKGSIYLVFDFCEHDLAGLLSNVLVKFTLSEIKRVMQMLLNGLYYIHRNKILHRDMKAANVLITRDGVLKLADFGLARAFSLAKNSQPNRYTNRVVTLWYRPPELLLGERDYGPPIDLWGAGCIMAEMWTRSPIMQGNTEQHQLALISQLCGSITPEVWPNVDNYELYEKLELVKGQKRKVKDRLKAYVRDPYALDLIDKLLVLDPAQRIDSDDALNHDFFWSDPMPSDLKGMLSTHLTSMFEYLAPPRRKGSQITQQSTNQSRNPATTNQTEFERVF

Activity [1]: Active
Activity [2]: Active
Activity [3]: Active
IC50 [4]: 5.87 µM
Activity [5]: inactive
Activity [6]: Tde
Activity [7]: Active
Activity [9]: Active
inhibition [10]: 70%
Activity [11]: Active
Activity [12]: Active
Activity [13]: inactive
Activity [15]: inactive
Activity [16]: inactive
Activity [18]: Dose-Dependent Effect
Activity [19]: inactive
Activity [20]: Dose-Dependent Effect
Activity [21]: inactive
Activity [22]: Dose-Dependent Effect
Activity [23]: inactive
Activity [24]: Active
Activity [25]: inactive
Activity [26]: inactive
Activity [27]: inactive
SMILES: O=C(Cn1cc(-c2ccc(-c3cncc4ccccc34)cc2)cn1)N1CCN(CCCC23CC4CC(CC(C4)C2)C3)CC1
inhibition [8]: Active
Activity [14]: Active
Activity [17]: Active

Source: ChEMBL document CHEMBL5380817, “Discovery of LL-K8-22: A Selective, Durable, and Small-Molecule Degrader of the CDK8-Cyclin C Complex” (J Med Chem, 2023)
